# Calls of active or inactive are those of the source.
# What was measured:
# [1] = T. cruzi growth inhibition in host cells, dose response, cell-based, plate reader, dry powder, set 2 (AID 652275); type: functional
# [2] = Fluorescence-based cell-based high throughput dose response assay for inhibitors of the interaction of nucleotide-binding oligomerization domain containing 2 (NOD2) and the receptor-interacting serine-threonine kinase 2 (RIPK2).; type: functional; conditions: Homo sapiens
# Paired box protein Pax-8 = Paired box protein Pax-8 (Homo sapiens, UniProt Q06710); test: PAX8 transcriptional activity inhibition in RMG-I – RMG-I cells, luciferase, cherry-pick, dose response (AID 687027); type: functional, cell-based;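 also: luciferase reporter driven by Pax8 target thyroperoxidase promoter measured by SteadyGlo luminescence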
# [3] = OVCAR8 cell viability loss – plate reader, dry powder samples, PAX8 project, dose response (AID 743197); type: functional, cell-based; conditions: OVCAR-8
# [4] = target: T1, Rac GTPase-activating protein 1 (Homo sapiens, UniProt Q9H0H5); test: blockers of MgcRacGAP-driven Rac1 GTP hydrolysis – biochemical, ADP Hunter fluorescence, primary and confirmatory, confirmation (AID 624330); type: functional
# T1 sequence (Q9H0H5 whole entry): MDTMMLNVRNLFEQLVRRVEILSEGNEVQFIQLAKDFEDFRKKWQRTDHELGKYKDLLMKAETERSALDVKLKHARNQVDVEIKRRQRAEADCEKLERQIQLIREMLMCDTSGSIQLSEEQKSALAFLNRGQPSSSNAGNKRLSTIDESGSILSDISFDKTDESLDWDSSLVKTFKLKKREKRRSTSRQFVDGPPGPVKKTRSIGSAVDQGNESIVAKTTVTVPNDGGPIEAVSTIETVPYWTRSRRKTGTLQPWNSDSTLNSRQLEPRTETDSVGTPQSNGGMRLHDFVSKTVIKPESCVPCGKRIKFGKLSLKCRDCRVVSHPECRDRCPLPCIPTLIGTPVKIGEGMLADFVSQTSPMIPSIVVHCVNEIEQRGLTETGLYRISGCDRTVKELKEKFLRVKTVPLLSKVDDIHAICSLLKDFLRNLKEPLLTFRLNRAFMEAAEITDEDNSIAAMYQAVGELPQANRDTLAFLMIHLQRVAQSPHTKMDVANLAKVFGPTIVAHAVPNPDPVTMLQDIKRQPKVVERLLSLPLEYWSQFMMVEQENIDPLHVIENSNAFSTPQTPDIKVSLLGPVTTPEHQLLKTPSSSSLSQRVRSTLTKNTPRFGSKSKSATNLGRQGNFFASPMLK
# Large T antigen = Large T antigen (Simian virus 40, UniProt P03070); type: functional, Betapolyomavirus macacae;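 also: Confirmatory-stage PubChem screen for compounds that inhibit SV40 T antigen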
# Genome polyprotein = Genome polyprotein (dengue virus type 2, UniProt P29990); test: flavivirus cap methylation enzyme inhibition – biochemical, confirmation dose response, primary screen (AID 588689); type: functional
# [5] = viability loss in HeLa cells – cytotoxicity control for MgcRacGAP inhibitor project, dose response (AID 624300); type: functional
# Melanocortin receptor 4 = Melanocortin receptor 4 (Homo sapiens, UniProt P32245); type: functional, cell-based;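 also: Cell-based assay with luminescence read-out, confirmatory dose-response testing for agonist activity of biased ligands at MC4R; human U2OS cells with tagged receptor and beta-arrestin; potency of agonists that increase receptor coupling to beta-arrestin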
# [6] = microbe, parasite or virus in culture; type: functional; conditions: Mycobacterium tuberculosis
# [7] = cytotoxicity toward Colo320 cells – cell-based, CellTiter-Glo luminescence, IC50, dose response (AID 1117334); type: functional; conditions: COLO 320
# [8] = SNU-C1 cell viability reduction, dose response, CellTiter-Glo luminescence (AID 1117323); type: functional, cell-based
# [9] = HCT116 cell viability decrease, GSK3B pretreatment – CellTiter-Glo, IC50, dose response (AID 1117339); type: functional; conditions: HCT-116
# [10] = RKO cell viability reduction, dose response, CellTiter-Glo luminescence (AID 1117322); type: functional
# [11] = Reduced DLD-1 viability, concentration-response, CellTiter-Glo luminescence (AID 1117352); type: functional
# [12] = CellTiter-Glo luminescence survival assay, SW480 colon tumor line, concentration-response curve, half-maximal inhibitory concentration (AID 1117338); type: functional
# [13] = cytotoxicity toward HT-29 cells – cell-based, CellTiter-Glo luminescence, IC50, dose response (AID 1117330); type: functional
# [14] = cytotoxicity toward HCT116 cells – cell-based, CellTiter-Glo luminescence, IC50, dose response (AID 1117332); type: functional; conditions: HCT-116
# [15] = fluconazole-exposed Candida albicans growth modulators – fluorescence, retest, confirmation (AID 2467); type: functional, cell-based
# [16] = NIH-3T3 fibroblast cytotoxicity, dose response, cytotoxicity control, cell-based, fluorescence, Alamar Blue, secondary assay (AID 2327); type: functional;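 also: NIH-3T3 mouse fibroblasts cultured with fluconazole at 8 µg/mL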
# [17] = HGIII-sPLA2 enzyme inhibition potency – biochemical, QFRET, IC50, dose response (AID 743457);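 also: green fluorescence rise as the enzyme cleaves BODIPY PC-A2 in liposomes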
# [18] = target: T2, Low molecular weight phosphotyrosine protein phosphatase (Homo sapiens, UniProt P24666); type: functional; conditions: read-out: IC50_Mean
# T2 sequence (P24666 whole entry): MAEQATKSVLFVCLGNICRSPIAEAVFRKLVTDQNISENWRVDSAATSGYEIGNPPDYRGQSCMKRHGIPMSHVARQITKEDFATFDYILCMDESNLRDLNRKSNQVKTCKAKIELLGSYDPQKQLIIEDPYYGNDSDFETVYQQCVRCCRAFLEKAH
# [19] = target: T3, Mannose-6-phosphate isomerase (Homo sapiens, UniProt P34949); test: MPI inhibition at elevated mannose 6-phosphate – biochemical, fluorescence intensity, high mannose 6-phosphate, primary screen (AID 1220)
# T3 sequence (P34949 whole entry): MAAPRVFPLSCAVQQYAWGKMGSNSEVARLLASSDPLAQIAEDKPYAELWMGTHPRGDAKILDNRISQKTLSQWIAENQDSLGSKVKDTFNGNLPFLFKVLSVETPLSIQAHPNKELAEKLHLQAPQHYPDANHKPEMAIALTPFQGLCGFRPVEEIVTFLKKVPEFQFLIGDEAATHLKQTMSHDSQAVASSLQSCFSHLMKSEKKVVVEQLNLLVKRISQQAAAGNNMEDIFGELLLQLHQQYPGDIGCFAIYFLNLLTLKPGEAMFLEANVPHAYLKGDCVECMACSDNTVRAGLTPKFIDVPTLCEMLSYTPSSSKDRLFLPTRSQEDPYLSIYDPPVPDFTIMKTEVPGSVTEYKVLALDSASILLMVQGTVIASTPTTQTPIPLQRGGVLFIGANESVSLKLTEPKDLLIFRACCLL
# [20] = target: T2, Low molecular weight phosphotyrosine protein phosphatase; type: functional; conditions: read-out: IC50_Mean; remark: listed apart in the source
# Albumin = Albumin (Bos taurus, UniProt P02769); test: Counterscreen for inhibitors of T-cell receptor (TCR)-CD3 interaction: Fluorescence-based biochemical high throughput dose response assay to identify inhibitors of T-cell receptor (TCR)-CD3 interaction using a TAMRA-labeled BSA probe.; type: functional
# [21] = target: T4, Sentrin-specific protease 8 (Homo sapiens, UniProt Q96LD8); type: functional
# T4 sequence (Q96LD8 whole entry): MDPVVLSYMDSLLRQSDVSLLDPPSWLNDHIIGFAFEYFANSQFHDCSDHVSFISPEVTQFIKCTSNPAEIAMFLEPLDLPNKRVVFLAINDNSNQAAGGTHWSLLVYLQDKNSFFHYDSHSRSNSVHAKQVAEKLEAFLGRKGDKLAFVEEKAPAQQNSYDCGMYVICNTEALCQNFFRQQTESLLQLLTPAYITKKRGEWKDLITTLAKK
# [22] = target: T4, Sentrin-specific protease 8; type: functional; remark: listed apart in the source
# [23] = rise of 2N DNA cells, HeLa – IC50, dose response (AID 1117349); type: functional, cell-based
# [24] = rise of 4N DNA cells, HeLa – IC50, dose response (AID 1117351); type: functional, cell-based
# [25] = target: Dual specificity tyrosine-phosphorylation-regulated kinase 1A (Rattus norvegicus, UniProt Q63470); type: biochemical, Homo sapiens
# Beta-galactosidase = Beta-galactosidase (Escherichia coli, UniProt Q8VNN2); test: PubChem AID 485352; type: functional
# [26] = target: T5, Type-1 angiotensin II receptor (Homo sapiens, UniProt P30556); test: antagonism of angiotensin II type 1 receptor – cell-based, uHTS hits, selectivity assay for APJ receptor antagonist project, dose response (AID 463214); type: functional;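 also: antagonist potency against angiotensin II stimulated AT1 response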
# T5 sequence (P30556 whole entry): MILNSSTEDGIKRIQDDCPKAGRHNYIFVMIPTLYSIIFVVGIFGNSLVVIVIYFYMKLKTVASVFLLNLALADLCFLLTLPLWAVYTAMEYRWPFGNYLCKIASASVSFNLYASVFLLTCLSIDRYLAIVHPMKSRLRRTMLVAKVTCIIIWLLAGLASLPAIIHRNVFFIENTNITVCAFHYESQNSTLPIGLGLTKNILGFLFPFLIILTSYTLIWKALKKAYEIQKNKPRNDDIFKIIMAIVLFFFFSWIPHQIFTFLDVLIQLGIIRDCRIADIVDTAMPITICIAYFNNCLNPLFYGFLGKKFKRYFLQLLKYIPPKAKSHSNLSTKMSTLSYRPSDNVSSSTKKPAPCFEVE
# Protein Tat = target: T6, Protein Tat (Human immunodeficiency virus type 1 group M subtype B (isolate HXB2)(HIV-1), UniProt P04608); type: functional;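 also: tat binding to TAR RNA read out by fluorescence polarization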
# T6 sequence (P04608 whole entry): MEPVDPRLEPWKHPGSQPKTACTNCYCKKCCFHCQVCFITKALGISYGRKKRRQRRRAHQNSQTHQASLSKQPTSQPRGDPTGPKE
# Sequence of Albumin (P02769 whole entry): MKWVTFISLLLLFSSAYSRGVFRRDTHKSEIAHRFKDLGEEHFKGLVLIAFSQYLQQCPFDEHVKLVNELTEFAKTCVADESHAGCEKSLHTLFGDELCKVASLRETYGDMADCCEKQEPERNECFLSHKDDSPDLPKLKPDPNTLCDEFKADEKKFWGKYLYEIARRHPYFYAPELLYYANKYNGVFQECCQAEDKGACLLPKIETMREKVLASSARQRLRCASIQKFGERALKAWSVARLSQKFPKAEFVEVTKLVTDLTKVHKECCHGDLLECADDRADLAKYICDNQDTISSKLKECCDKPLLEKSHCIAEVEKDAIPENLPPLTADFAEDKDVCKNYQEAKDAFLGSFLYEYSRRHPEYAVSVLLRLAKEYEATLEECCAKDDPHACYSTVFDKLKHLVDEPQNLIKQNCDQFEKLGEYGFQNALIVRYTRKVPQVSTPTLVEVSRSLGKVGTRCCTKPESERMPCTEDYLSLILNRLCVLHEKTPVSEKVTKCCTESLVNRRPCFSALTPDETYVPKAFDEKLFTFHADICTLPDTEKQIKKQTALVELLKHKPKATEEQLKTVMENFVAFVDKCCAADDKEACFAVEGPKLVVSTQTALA
# Sequence of Paired box protein Pax-8 (Q06710 whole entry): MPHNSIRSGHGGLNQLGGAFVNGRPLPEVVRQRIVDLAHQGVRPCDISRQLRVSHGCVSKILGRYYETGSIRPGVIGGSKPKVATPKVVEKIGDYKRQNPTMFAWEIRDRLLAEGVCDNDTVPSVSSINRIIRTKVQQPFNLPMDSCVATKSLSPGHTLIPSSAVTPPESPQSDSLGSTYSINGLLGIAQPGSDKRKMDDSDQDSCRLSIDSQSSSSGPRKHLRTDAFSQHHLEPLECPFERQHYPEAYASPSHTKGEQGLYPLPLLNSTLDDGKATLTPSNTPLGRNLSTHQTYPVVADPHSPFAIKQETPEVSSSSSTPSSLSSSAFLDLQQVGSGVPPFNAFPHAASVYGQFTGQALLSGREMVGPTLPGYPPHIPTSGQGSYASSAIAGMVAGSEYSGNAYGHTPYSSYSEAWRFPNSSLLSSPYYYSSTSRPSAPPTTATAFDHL
# Sequence of Beta-galactosidase (Q8VNN2 whole entry): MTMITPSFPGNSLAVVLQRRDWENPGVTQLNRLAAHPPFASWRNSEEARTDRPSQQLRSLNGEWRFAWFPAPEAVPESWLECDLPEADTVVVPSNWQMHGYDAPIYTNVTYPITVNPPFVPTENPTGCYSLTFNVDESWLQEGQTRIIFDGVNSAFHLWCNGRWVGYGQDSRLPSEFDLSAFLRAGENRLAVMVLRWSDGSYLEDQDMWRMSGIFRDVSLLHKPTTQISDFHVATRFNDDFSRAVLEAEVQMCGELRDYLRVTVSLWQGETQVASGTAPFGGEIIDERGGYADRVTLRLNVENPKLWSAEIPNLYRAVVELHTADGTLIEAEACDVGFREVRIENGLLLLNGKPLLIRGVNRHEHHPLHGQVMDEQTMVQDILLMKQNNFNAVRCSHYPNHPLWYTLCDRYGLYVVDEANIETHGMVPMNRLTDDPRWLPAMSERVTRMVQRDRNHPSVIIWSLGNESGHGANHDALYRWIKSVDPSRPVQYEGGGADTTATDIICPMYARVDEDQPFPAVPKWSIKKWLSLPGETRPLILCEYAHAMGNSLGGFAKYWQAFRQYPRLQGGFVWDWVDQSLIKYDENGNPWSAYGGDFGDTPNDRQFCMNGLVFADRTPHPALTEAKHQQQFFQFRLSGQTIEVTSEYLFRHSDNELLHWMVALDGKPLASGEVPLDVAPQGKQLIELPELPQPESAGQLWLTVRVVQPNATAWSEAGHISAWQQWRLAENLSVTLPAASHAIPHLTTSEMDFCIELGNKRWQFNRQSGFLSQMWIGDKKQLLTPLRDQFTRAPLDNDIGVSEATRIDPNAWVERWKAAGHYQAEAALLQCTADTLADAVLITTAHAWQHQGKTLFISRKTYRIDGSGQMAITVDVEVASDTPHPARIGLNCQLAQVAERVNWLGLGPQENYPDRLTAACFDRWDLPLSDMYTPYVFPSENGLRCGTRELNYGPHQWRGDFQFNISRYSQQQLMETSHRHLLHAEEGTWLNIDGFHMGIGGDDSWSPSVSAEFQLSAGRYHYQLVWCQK
# Sequence of Large T antigen (P03070 whole entry): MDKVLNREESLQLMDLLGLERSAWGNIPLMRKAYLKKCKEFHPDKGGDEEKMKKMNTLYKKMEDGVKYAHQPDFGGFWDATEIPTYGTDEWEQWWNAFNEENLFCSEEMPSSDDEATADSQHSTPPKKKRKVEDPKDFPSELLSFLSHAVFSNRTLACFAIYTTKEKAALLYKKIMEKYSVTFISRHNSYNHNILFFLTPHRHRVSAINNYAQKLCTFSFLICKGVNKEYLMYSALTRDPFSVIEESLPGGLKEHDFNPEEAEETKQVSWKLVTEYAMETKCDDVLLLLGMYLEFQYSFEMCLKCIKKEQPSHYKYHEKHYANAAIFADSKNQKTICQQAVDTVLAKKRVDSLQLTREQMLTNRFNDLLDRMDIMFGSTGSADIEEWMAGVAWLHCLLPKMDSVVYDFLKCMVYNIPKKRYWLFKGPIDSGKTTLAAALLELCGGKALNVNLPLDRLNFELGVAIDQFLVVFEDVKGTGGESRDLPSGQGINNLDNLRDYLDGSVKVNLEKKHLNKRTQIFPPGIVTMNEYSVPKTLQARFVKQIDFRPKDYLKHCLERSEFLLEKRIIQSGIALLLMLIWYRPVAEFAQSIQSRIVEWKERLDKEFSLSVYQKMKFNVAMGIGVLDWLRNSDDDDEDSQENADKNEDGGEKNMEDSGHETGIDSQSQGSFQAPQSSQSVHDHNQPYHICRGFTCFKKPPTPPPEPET
# Sequence of Melanocortin receptor 4 (P32245 whole entry): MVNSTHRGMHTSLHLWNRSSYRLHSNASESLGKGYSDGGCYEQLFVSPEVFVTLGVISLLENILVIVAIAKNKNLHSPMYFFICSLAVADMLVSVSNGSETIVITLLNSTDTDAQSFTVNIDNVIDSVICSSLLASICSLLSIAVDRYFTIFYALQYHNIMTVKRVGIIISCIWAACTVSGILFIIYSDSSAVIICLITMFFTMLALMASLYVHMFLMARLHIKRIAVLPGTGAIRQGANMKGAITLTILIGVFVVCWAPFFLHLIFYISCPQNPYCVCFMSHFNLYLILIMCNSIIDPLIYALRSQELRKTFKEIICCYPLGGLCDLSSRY
# Sequence of Genome polyprotein (P29990 2492-3391 limits assumed): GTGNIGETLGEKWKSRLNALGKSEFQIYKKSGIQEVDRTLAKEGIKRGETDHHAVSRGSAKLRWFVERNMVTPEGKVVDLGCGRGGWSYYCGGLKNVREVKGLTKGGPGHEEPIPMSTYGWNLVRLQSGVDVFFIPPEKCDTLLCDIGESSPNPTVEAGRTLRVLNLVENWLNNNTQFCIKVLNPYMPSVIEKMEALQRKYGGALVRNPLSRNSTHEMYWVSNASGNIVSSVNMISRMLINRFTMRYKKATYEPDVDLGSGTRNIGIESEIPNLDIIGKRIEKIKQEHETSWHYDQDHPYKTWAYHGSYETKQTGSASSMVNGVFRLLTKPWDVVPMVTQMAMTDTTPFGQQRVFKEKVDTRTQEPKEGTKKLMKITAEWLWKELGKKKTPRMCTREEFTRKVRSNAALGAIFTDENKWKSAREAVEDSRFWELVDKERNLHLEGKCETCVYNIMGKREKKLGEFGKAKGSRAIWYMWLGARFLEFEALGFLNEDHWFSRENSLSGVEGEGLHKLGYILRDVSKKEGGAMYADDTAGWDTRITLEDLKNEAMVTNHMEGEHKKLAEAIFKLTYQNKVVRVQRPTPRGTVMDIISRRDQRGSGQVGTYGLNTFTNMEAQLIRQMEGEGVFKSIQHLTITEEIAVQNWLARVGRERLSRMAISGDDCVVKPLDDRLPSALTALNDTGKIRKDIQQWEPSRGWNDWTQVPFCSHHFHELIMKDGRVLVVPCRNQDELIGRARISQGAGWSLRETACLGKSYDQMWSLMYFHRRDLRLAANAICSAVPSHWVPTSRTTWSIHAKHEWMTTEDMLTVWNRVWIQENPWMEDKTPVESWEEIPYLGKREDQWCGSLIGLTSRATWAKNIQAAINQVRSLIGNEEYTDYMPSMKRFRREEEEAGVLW
smiles,measurement,setting,value
CC(C)(C)[S@@+]([O-])N1Cc2cc(C(=O)NCc3ccc4c(c3)OCO4)nc(-c3cccc(-c4ccccc4)c3)c2[C@H]1CCO,AC50,[1],309 nM (active)
CC(NC(=O)CN(c1cccc(C(F)(F)F)c1)S(=O)(=O)c1ccc(Cl)c([N+](=O)[O-])c1)c1ccccc1 (configuration not stated),IC50,[2],15.6 µM (inactive)
C[C@@H]1CCCCO[C@@H](CN(C)C(=O)Nc2cccc3ccccc23)[C@H](C)CN([C@H](C)CO)C(=O)c2cc(NS(=O)(=O)c3ccccc3)ccc2O1,AC50,Paired box protein Pax-8,3.66 µM (active)
same,AC50,[3],> 70 µM (inactive)
CC1=NN(c2ccc(Cl)c(C(=O)O)c2)C(=O)/C1=C/c1ccc(-c2ccccc2[N+](=O)[O-])o1,IC50,[4],28.7 µM (active)
same,IC50,Large T antigen,15.7 µM (active)
same,IC50,Genome polyprotein,9.5 µM (active)
same,CC50,[5],100 µM (active)
Cc1ccc(CN2CCC(c3cc(-c4ccc(Cl)cc4)[nH]n3)CC2)cc1,EC50,Melanocortin receptor 4,> 89.2 µM (inactive)
same,CC50,[6],> 40 µM (active)
CCOP(=S)(OCC)SCSc1ccc(Cl)cc1 [CARBOFENOTION],IC50,[7],> 20 µM (inactive)
same,IC50,[8],> 20 µM (inactive)
same,IC50,[9],> 20 µM (inactive)
same,IC50,[10],> 20 µM (inactive)
same,IC50,[11],> 20 µM (inactive)
same,IC50,[12],> 20 µM (inactive)
C=CCN1CC[C@]23CCCC[C@H]2[C@H]1Cc1ccc(O)cc13 [LEVALLORPHAN],IC50,[7],> 20 µM (inactive)
same,IC50,[13],> 20 µM (inactive)
same,IC50,[14],> 20000 nM (inactive)
same,IC50,[8],> 20 µM (inactive)
same,IC50,[9],> 20 µM (inactive)
same,IC50,[10],> 20 µM (inactive)
same,IC50,[11],> 20 µM (inactive)
same,IC50,[12],> 20 µM (inactive)
Cc1cc(C(=O)NNC(S)=NC(C)c2ccccc2)c2ccccc2n1 (configuration not stated),EC50,[15],> 38 µM (not active)
same,EC50,[16],> 150 µM (inactive)
same,IC50,[17],> 122 µM (inactive)
CN(C)C=O.Cc1cc(-c2ccco2)c(C#N)c2nc3ccccc3n12,IC50,[18],37.5 µM (inactive)
same,IC50,[19],> 50 µM (not active)
same,IC50,[20],> 80 µM (inactive)
O=C1NC(=O)N(Cc2ccco2)C(=O)/C1=C/NNC(=O)c1ccccc1,IC50,Albumin,> 94.2 µM (inactive)
Cc1n[nH]c(S/C(=C/c2ccc(OCc3ccc(C(=O)O)cc3)cc2)C(=O)O)n1,IC50,Albumin,> 94.1 µM (inactive)
O=C(O)c1cccc(N2C(=O)c3ccc4c5c(ccc(c35)C2=O)C(=O)N(c2cccc(C(=O)O)c2)C4=O)c1,IC50,[21],16.5 µM (active)
same,IC50,[22],13.7 µM (active)
COC(=O)Nc1nc2cc([S+]([O-])c3ccccc3)ccc2[nH]1 (configuration not stated) [OXFENDAZOLE],IC50,[23],0.326 µM (active)
same,IC50,[13],> 20 µM (inactive)
same,IC50,[14],1 nM (active)
same,IC50,[9],0.001 µM (active)
same,IC50,[10],0.001 µM (active)
same,IC50,[24],0.331 µM (active)
same,IC50,[11],> 20 µM (inactive)
same,IC50,[12],> 20 µM (inactive)
Fc1ccccc1-c1nc(NCCCN2CCOCC2)c2ccccc2n1,IC50,[18],13 µM (active)
same,IC50,[20],33 µM (inactive)
O=C(Nc1ccc(Br)cc1)c1cc(Br)cc(Br)c1O [TRIBROMSALAN],IC50,[23],> 10 µM (inactive)
same,IC50,[7],0.003 µM (active)
same,IC50,[13],0.001 µM (active)
same,IC50,[14],3 nM (active)
same,IC50,[8],0.001 µM (active)
same,IC50,[9],0.001 µM (active)
same,IC50,[10],0.003 µM (active)
same,IC50,[24],> 10 µM (inactive)
same,IC50,[11],0.001 µM (active)
same,IC50,[12],0.001 µM (active)
O=C(Cc1ccccn1)N1CCCCN2[C@@H](CO)[C@H](c3ccc(-c4ccc(F)cc4)cc3)[C@@H]2C1,AC50,[1],1430 nM (active)
O=C1C(=O)N(Cc2ccc(-c3ccsc3)cc2)c2ccc(OC(F)(F)F)cc21,IC50,[17],25.5 µM (inactive)
O=C1NC(=O)/C(=C\c2ccc(Oc3cnccn3)cc2)S1,AC50,[25],4.71 µM (active)
CCN=C(S)NNc1nnc(-c2ccccc2)c(-c2ccccc2)n1,EC50,Beta-galactosidase,> 40 µM (inactive)
same,IC50,[17],> 122 µM (inactive)
same,IC50,[26],> 40 µM (not active)
CCOC(=O)/C(C#N)=C\c1c(OCC)n(CC)c2ccccc12,CC50,[5],100 µM (active)
C=CCN1C(=O)NC(=O)/C(=C(/CC)NCCN2CCOCC2)C1=O,IC50,Protein Tat,> 100 µM (active)

# From ChEMBL document CHEMBL1201862, “PubChem BioAssay data set” (2004)
